Experimental data from patent publication US8383183B2, “Sweetness enhancers, sweetness enhanced sweetener compositions, methods for their formulation, and uses” (The Coca-Cola Company, priority 2007, dated 2013).
Values joined by “and” are separate entries in the source; they are usually repeats but may differ in a detail not shown here. Equal entries are not always repeated. One block for each compound: values may come before it.

Experiments:
[1] = test system: sweetness intensity of 6% sucrose; assay: Sulfamate & 6% sucrose Sweetness Enhancement Test (sensory rating against 6-10% sucrose references); assay type: in vivo; set-up: key to Sweetness Intensity Rating (6-10), subject #1 / Sweetness Intensity Rating (6-10), subject #2 / Sweetness Intensity Rating (6-10), subject #3 / Sweetness Intensity Rating (6-10), subject #4 / Sweetness Intensity Rating (6-10), subject #5 / Average Intensity Rating: sweetness rated 6-10 relative to 6-10% sucrose references
Description: Sensory studies that were carried out on the N-substituted sulfamic acid salts included 1) preliminary sulfamate analogue Sweetness Detection Threshold (SDT) estimation, 2) refined Sweetness Detection Threshold (SDT) estimation, 3) N-substituted sulfamic acid salts mixed with 6% sucrose Sweetness Enhancement Test and 4) repeat of step 3. Reference samples were prepared at 6, 7, 8, 9 and 10% sucrose (w/v). […] Each of the ten samples was then individually rated for sweetness intensity on a scale of 6-10 relative to the 6-10% sucrose references.

sweet taste [2] = assay: Preliminary sulfamate analogue Sweetness Detection Threshold (SDT) estimation, sip-and-spit, one experienced subject; assay type: in vivo; conditions: for sweet taste exhibited: 15.6-1,000 ppm solutions in water, one subject
Description: Sensory studies that were carried out on the N-substituted sulfamic acid salts included 1) preliminary sulfamate analogue Sweetness Detection Threshold (SDT) estimation, 2) refined Sweetness Detection Threshold (SDT) estimation, 3) N-substituted sulfamic acid salts mixed with 6% sucrose Sweetness Enhancement Test and 4) repeat of step 3. A 1,000 ppm sulfamate analogue solution was prepared by dissolution of 20 mg sulfamate analogue in 20 mL purified water. An aliquot (10 mL) of this solution was diluted to 20 mL with water to obtain a 500 ppm solution. Additional 1:1 serial dilutions step were used to obtain 250, 125, 62.5, 31.2 and 15.6 ppm solutions. These solutions were then tasted in ascending order of concentration by one experienced subject by using a sip-and-spit protocol. The subject's estimated SDT was determined to be at the lowest concentration at which sweetness was definitely observed.

[3] = Rate of dissolution in H2O at 25° C.; assay type: physicochemical
sweet taste [4] = assay: N-alkyl sulfamate SDT estimation, sip-and-spit, 5 experienced subjects; assay type: in vivo
Description: A 250 ppm solution of 4 was prepared by dissolution of 50 mg sulfamate in 200 mL purified water. An aliquot (100 mL) of this solution then was diluted to 200 mL with water to obtain a 125 ppm solution. Additional 1:1 serial dilution steps were used to prepare 62.5, 31.2 and 15.6 ppm solutions. These solutions then were tasted in ascending order of concentration by 5 experienced subjects by a sip-and-spit protocol.

[5] = 125 ppm in 6% sucrose, single test sample, listed as NS

Compound: sodium 1H-1,3,5-triazolyl sulfamate [sulfamate 1]
sweetness intensity of a 6.0% sugar solution increased to the equivalent of ([1]; about 372 ppm in 6.0% sugar solution): about 7.1 % sugar solution
sweet taste of the sulfamate by itself (sweet taste [2]; no sugar): not sweet by itself

Rate of dissolution in H2O at 25° C. ([3]; in 5 minutes): High (>30%
Compound: C=C1C[C@@]23CC[C@H]4[C@@](C)(CCC[C@@]4(C)C(=O)O[C@@H]4O[C@H](CO)[C@@H](O)[C@H](O)[C@H]4O)[C@@H]2CC[C@]1(O[C@@H]1O[C@H](CO)[C@@H](O)[C@H](O[C@@H]2O[C@H](CO)[C@@H](O)[C@H](O)[C@H]2O)[C@H]1O[C@@H]1O[C@H](CO)[C@@H](O)[C@H](O)[C@H]1O)C3 [Form 3, rebaudioside A]

Compound: CC1CCCCC1NS(=O)(=O)[O-].[Na+] (stereo not shown) [sulfamate 2, sodium 1H-2-methyl cyclohexyl sulfamate]
sweetness intensity of a 6.0% sugar solution increased to the equivalent of ([1]; about 430 ppm in 6.0% sugar solution): about 7.3 % sugar solution
sweet taste exhibited (sweet taste [2]): exhibit sweet taste
off-taste (sweet taste [2]; 1,000 ppm in water): some bitterness off-taste problems
taste (sweet taste [2]; 1,000 ppm in water): slight sweet taste
sweet taste of the sulfamate by itself (sweet taste [2]; no sugar): not sweet by itself

Compound: sodium 1H-thiazolyl sulfamate [sulfamate 5]
sweetness intensity of a 6.0% sugar solution increased to the equivalent of ([1]; about 404 ppm in 6.0% sugar solution): about 6.9 % sugar solution
sweet taste of the sulfamate by itself (sweet taste [2]; no sugar): not sweet by itself

Compound: CC(C)(C)CCNS(=O)(=O)[O-].[Na+] [sulfamate 3A, sodium 1H-3,3-dimethyl butyl sulfamate]
sweetness intensity of a 6.0% sugar solution increased to the equivalent of ([1]; about 406 ppm in 6.0% sugar solution): about 7.0 % sugar solution
sweet taste of the sulfamate by itself (sweet taste [2]; no sugar): not sweet by itself

Rate of dissolution in H2O at 25° C. ([3]; in 60 minutes): Very low (<0.2%
Compound: C=C1C[C@@]23CC[C@H]4[C@@](C)(CCC[C@@]4(C)C(=O)O[C@@H]4O[C@H](CO)[C@@H](O)[C@H](O)[C@H]4O)[C@@H]2CC[C@]1(O[C@@H]1O[C@H](CO)[C@@H](O)[C@H](O[C@@H]2O[C@H](CO)[C@@H](O)[C@H](O)[C@H]2O)[C@H]1O[C@@H]1O[C@H](CO)[C@@H](O)[C@H](O)[C@H]1O)C3 [Form 1, rebaudioside A]

Rate of dissolution in H2O at 25° C. ([3]; in 5 minutes): Intermediate (<30%
Compound: C=C1C[C@@]23CC[C@H]4[C@@](C)(CCC[C@@]4(C)C(=O)O[C@@H]4O[C@H](CO)[C@@H](O)[C@H](O)[C@H]4O)[C@@H]2CC[C@]1(O[C@@H]1O[C@H](CO)[C@@H](O)[C@H](O[C@@H]2O[C@H](CO)[C@@H](O)[C@H](O)[C@H]2O)[C@H]1O[C@@H]1O[C@H](CO)[C@@H](O)[C@H](O)[C@H]1O)C3 [Form 2, rebaudioside A]

Compound: CC(C)(C)CCNS(=O)(=O)[O-].[K+] [sulfamate 3B, potassium 1H-3,3-dimethyl butyl sulfamate]
sweetness intensity of a 6.0% sugar solution increased to the equivalent of ([1]; about 200 ppm in 6.0% sugar solution): about 7.0 % sugar solution
sweet taste of the sulfamate by itself (sweet taste [2]; in amounts up to 1000 ppm): not sweet by itself

Rate of dissolution in H2O at 25° C. ([3]; in 5 minutes): High (>35.0%
Compound: C=C1C[C@@]23CC[C@H]4[C@@](C)(CCC[C@@]4(C)C(=O)O[C@@H]4O[C@H](CO)[C@@H](O)[C@H](O)[C@H]4O)[C@@H]2CC[C@]1(O[C@@H]1O[C@H](CO)[C@@H](O)[C@H](O[C@@H]2O[C@H](CO)[C@@H](O)[C@H](O)[C@H]2O)[C@H]1O[C@@H]1O[C@H](CO)[C@@H](O)[C@H](O)[C@H]1O)C3 [Form 4, rebaudioside A]

Compound: O=S(=O)([O-])NC1CC2CCC1C2.[Na+] (stereo not shown) [sulfamate 4, sodium bicycle[2.2.1]heptan-2-yl sulfamate]
Sweetness Detection Threshold (SDT) (sweet taste [4]; 5 subjects, in water): < 125 ppm
taste (sweet taste [4]; 15.6 ppm solution, all 5 subjects): absence of taste
taste (sweet taste [4]; 31.2 ppm solution, all 5 subjects): absence of taste
taste (sweet taste [4]; 62.5 ppm solution, 3 out of 5 subjects): very faint sweetness
sweetness, sugar equivalent (sweet taste [4]; 125 ppm solution, 4 out of 5 subjects): less than 1 % sugar equivalent
sweetness comparable to that of sucrose (sweet taste [4]; 250 ppm sample, all 5 subjects): ca. 2 % sucrose
equivalent sweetness intensity by itself (sweet taste [4]; about 62 ppm, by itself): < 1 % sugar solution
Average Intensity Rating ([1]; 125 ppm in 6% sucrose, single test sample, mean of 5 subjects, listed as NS): 8.2 and 8.4 and 7.2 and 8.6
Sweetness Intensity Rating (6-10), subject #1 [1, 5]: 8 and 9 and 7
Sweetness Intensity Rating (6-10), subject #2 [1, 5]: 8 and 9 and 7 and 10
Sweetness Intensity Rating (6-10), subject #3 [1, 5]: 8 and 7
Sweetness Intensity Rating (6-10), subject #4 [1, 5]: 9 and 7
Sweetness Intensity Rating (6-10), subject #5 [1, 5]: 8 and 7
average sweetness intensity rating, with 6% Sucrose Test Average ([1]; 125 ppm in 6% sucrose, scale 6-10 relative to 6-10% sucrose references, mean of four test samples): 8.1
sweetness intensity of a 6.0% sugar solution increased to the equivalent of ([1]; about 125 ppm in 6.0% sugar solution): about 8.1 % sugar solution
sweet taste exhibited (sweet taste [2]): exhibit sweet taste
off-taste (sweet taste [2]; 1,000 ppm in water): no off-taste
taste (sweet taste [2]; 1,000 ppm in water): strong sweet taste
sweet taste of the sulfamate by itself (sweet taste [2]; no sugar): very faint sweet taste
taste (sweet taste [2]; ca. 62 ppm in water): weak sweet taste
